Test results taken from patent publication US20140045205A1, “GLUTAMYL AMINOPEPTIDASE AS A MARKER OF RENAL DAMAGE” (UNIVERSIDAD DE GRANADA, priority 2010, published 2014).

Legend:
CysAp = test: Urinary CysAp activity in rats, fluorometric analysis with cystinyl-β-naphthylamide; format: in vivo, Wistar rats
Procedure: (§1) All treatments were maintained during 6 weeks. […] The GluAp, […] […] A blank was performed in duplicate for each sample.

[1] = rats, 8% NaCl in diet, 6 weeks
Procedure: (§2) On the one hand, 42 male Wistar rats of 250 g in weight from the animal house of the University of Valladolid were distributed in 6 groups (n=7) with the following treatments: Control, Salt (8% NaCl in the diet), Hypothyroid (methimazole, 300 mg/l in drinking water), Hypothyroid+Salt, Hyperthyroid (daily s.c. injection of thyroxine (T4) 200 μg.kg^−1.day^−1), and Hyperthyroid+Salt.

[2] = Proteinuria in rats (Bio-Rad DC Protein Assay kit, Lowry's method)
Procedure: as §2
(§3) At the end of the experiment, and after a 2-day period of adaptation to the metabolic cages, each animal was introduced in a metabolic cage during 24 hours. The dieresis was determined, and the urine was centrifuged for 10 min at 1,000 g, aliquoted and frozen at −80° C. until its use.
Proteinuria was determined using a commercial kit from Bio-Rad (DC Protein Assay kit) based on Lowry's method.

GluAp = test: Urinary GluAp activity in rats, fluorometric analysis with glutamyl-β-naphthylamide; details: for GluAp urinary activity change: rats, 6 weeks treatment (8% NaCl in diet; methimazole 300 mg/l drinking water; T4 200 μg/kg/day s.c.), versus control group
Procedure: as §2, §3
The GluAp, AlaAp, AspAp and CysAp activities were determined in duplicate by a fluorometric analysis using glutamyl-, alanyl-, aspartyl- and cystinyl-β-naphthylamide as substrates, respectively.
The substrates had been previously dissolved in 1 ml of DMSO and stored at -20° C.
The quantity of β-naphthylamine released as a result of the aminopeptidase activities was measured fluorometrically at an emission wavelength of 412 nm with excitation at 345 nm, taking a measurement of the fluorescence after 60 minutes, after stopping the reaction with 90 μl of 0.1 M acetate buffer.
A blank was performed in duplicate for each sample. […] The fluorescence difference between both measurements was quantified using a standard curve of β-naphthylamine dissolved in water at the concentrations of 12.5, 25, 50, 100 and 200 nmol/ml 90 μl of the incubation solution corresponding to each enzyme without the substrate were added to 20 μl of this solution, they were incubated during 60 minutes at 37° C., and 90 μl of 0.1 M acetate buffer were added. It was verified that the presence of the substrate in the incubation solutions in no way modified the fluorescence of the standard. All measurements were made in duplicate, and the linearity of the fluorescence obtained in the curve range was verified (0-200 nmol/ml).
Both for the determinations of the samples and for the blanks, reaction blanks were performed containing 20 μl of distilled water, 90 μl of incubation solution with or without substrate, respectively, and 90 μl of sodium acetate.
The specific activity of each aminopeptidase was expressed as nanomoles of hydrolyzed substrate per minute and per mg of creatinine. The linearity of the fluorescence obtained was verified with respect to hydrolysis time and creatinine content in a same sample.

AspAp = test: Urinary AspAp activity in rats, fluorometric analysis with aspartyl-β-naphthylamide; format: in vivo, Wistar rats
Procedure: as §1

AlaAp = test: Urinary AlaAp activity in rats, fluorometric analysis with alanyl-β-naphthylamide; format: in vivo, Wistar rats; details: for AlaAp urinary activity change: rats, 6 weeks treatment (8% NaCl in diet; methimazole 300 mg/l drinking water), versus control group
Procedure: as §1

[3] = 8% salt given simultaneously to hyperthyroid (T4) rats, 6 weeks, over the value of the hyperthyroid rats
[4] = rats, 6 weeks treatment (8% NaCl in diet; methimazole 300 mg/l drinking water; T4 200 μg/kg/day s.c.), versus control group
[5] = rats, 6 weeks treatment (methimazole 300 mg/l drinking water), versus control group
[6] = methimazole 300 mg/l given to rats treated with 8% salt (Hypothyroid+salt), 6 weeks, in comparison with rats treated with salt

SMILES | rise in CysAp activity (CysAp; [3]) | plasma creatinine change [1] | proteinuria change ([2]; 8% salt given simultaneously to hyperthyroid (T4) rats, 6 weeks) | proteinuria change [2, 4] | rise in GluAp activity (GluAp; [3]) | GluAp urinary activity change (GluAp) | rise in AspAp activity (AspAp; [3]) | rise in AlaAp activity (AlaAp; [3]) | AlaAp urinary activity change (AlaAp) | CysAp urinary activity change (CysAp; [5]) | GluAp activity change (GluAp; [6]) | AspAp urinary activity change (AspAp; [5]) | AlaAp activity change (AlaAp; [6])
[Cl-].[Na+] [Salt, NaCl] | around fivefold | not accompanied | great increase | not accompanied with proteinuria | more than tenfold | significant increase | around fivefold | more than tenfold | significant increase |  |  |  | 
Cn1cc[nH]c1=S [methimazole, reference compound] |  |  |  | no modification |  | no modification |  |  | significantly decreased | no modification | decrease | no modification | decrease
